Experimental data from ChEMBL document CHEMBL1124350, “Retinobenzoic acids. 4. Conformation of aromatic amides with retinoidal activity. Importance of trans-amide structure for the activity” (1989).

Assays:
HL-60 [1] = assay: Compound was tested for differentiation-inducing activity against human promyelocytic leukemia cell line HL-60; type: functional; settings: read-out: ED50 (the source's name)
HL-60 [2] = assay: Relative activity expressed as mean of ratio of effective dose of retinoic acid against HL-60 cell versus the compound; type: functional, Homo sapiens

Structure (SMILES) | EC50 (HL-60 [1]) | Relative activity (HL-60 [2])
CC1(C)CCC(C)(C)c2cc3c(cc21)CN(c1ccc(C(=O)O)cc1)C3=O | 510 nM | 0.33
CC1(C)CCC(C)(C)c2cc3c(ccn3C(=O)c3ccc(C(=O)O)cc3)cc21 | 65 nM | 2.6
CC1(C)CCC(C)(C)c2cc3c(cc21)CCN3C(=O)c1ccc(C(=O)O)cc1 | 150 nM | 1.1
CN(C(=O)c1ccc(C(=O)O)cc1)c1ccc2c(c1)C(C)(C)CCC2(C)C | > 1000 nM | <0.01
CC1(C)CCC(C)(C)c2cc(C(=O)Nc3ccc(C(=O)O)cc3)ccc21 | 0.34 nM | 720
CN(C(=O)c1ccc2c(c1)C(C)(C)CCC2(C)C)c1ccc(C(=O)O)cc1 | > 1000 nM | < 0.01
CC1(C)CCC(C)(C)c2cc(NC(=O)c3ccc(C(=O)O)cc3)ccc21 [TAMIBAROTENE] | 0.79 nM | 350
CC1=C(/C=C/C(C)=C/C=C/C(C)=C/C(=O)O)C(C)(C)CCC1 [TRETINOIN] | 2.4 nM | 100
